Measured values from patent publication US9217007B2, “Platinum anticancer agents” (priority 2011, dated 2015).
Read-outs that look alike come from different tables or passages of the source.

Experiments:
[1] = test system: LANS neuroblastoma cell line; assay: Toxicity against neuroblastoma cell line LANS; type: cell-based
Description: (§1) Compounds SM-73 and SM-85 are assayed against an array of neuroblastoma cell lines.

[2] = test system: HEK-MOCK (untransfected HEK293 cells); assay: MTT cytotoxicity assay in untransfected HEK293 cells; type: cell-based, human; settings: 7 h drug exposure then 72 h drug-free
Description: (§2) Evaluation of compounds was carried out in an in-vitro cytotoxicity assay, involving a comparison between the effect of the platinum complex on human embryonic kidney cells (HEK293) transfected with human OCT1 (HEK-hOCT1) and OCT2 (HEK-hOCT2) versus those that are not transfected.
(§3) After overnight incubation, the platinum compound with or without an OCT inhibitor (disopyramide) was then be added to the culture medium to various concentrations. After exposure to the drug for 7 hours, the drug-containing medium was replaced with fresh, drug-free medium and the incubation was continued for 72 hours.
(§4) Evaluation of all three classes of compounds was carried out in an in-vitro cytotoxicity assay, involving a comparison between the effect of the platinum complex on human embryonic kidney cells (HEK293) transfected with human OCT1 (HEK-hOCT1) and OCT2 (HEK-hOCT2) versus those that are not transfected.

HEK-hNET = assay: Toxicity toward HEK cells stably transfected with Norepinephrine Transporter; type: cell-based, human; settings: selectivity HEK-EV vs HEK-hNET
Description: The term “resistance factor” is a measure of selectivity conferred upon the platinum-based compound by the inclusion of ligands that promote recognition by NET.
as §3

[3] = test system: SHEP neuroblastoma cell line; assay: Toxicity against neuroblastoma cell line SHEP; type: cell-based
Description: as §1

[4] = test system: NB1691 neuroblastoma cell line; assay: Toxicity against neuroblastoma cell line NB1691; type: cell-based
Description: as §1

[5] = test system: Kelly neuroblastoma cell line; assay: Toxicity against neuroblastoma cell line Kelly; type: cell-based
Description: as §1

[6] = test system: SKNMC neuroblastoma cell line; assay: Toxicity against neuroblastoma cell line SKNMC; type: cell-based
Description: as §1

HEK-hOCT3 = assay: MTT cytotoxicity assay in HEK293 stably transfected with human OCT3; type: cell-based
Text: HEK293 cell lines, stably expressing hOCT1, hOCT2 and hOCT3.

[7] = Rate of inactivation of platinums by glutathione; type: physicochemical; settings: platinum drug 100 μM; [GSH] 6.75 mM; [NaCl] 4.62; absorption at 260 nm
Description: Platinum-based compound as described herein at a 100 μM concentration was reacted with physiological concentration of GSH and the absorption at 260 nm was measured to monitor the progress of the reaction. Absorption as a function of time (0≦t≦1440 min) for platinum concentration of zero was subtracted from the absorption at each platinum concentration. Initial rates were calculated from the early time points as change in absorption over change in time.
One major pathway by which these platinum drugs get inactivated in vivo is by reaction with glutathione (GSH). We mimicked this reaction with GSH in vitro using physiological concentrations of GSH and salts. Increase in absorption at 260 nm over period of time was monitored for progress of the reaction and initial rates were calculated from the early time points in terms of the change in absorption over change in time.

[8] = test system: SHSY5Y neuroblastoma cell line; assay: Toxicity against neuroblastoma cell line SHSY5Y; type: cell-based
Description: as §1

[9] = test system: SKNSH neuroblastoma cell line; assay: Toxicity against neuroblastoma cell line SKNSH; type: cell-based
Description: as §1

[10] = test system: DLD colon cancer cell line; assay: Cytotoxicity in colon cancer cell line DLD with and without cimetidine; type: cell-based
Description: (§5) Platinum uptake and platinum-DNA adduct formation was then measured in these transfected cell lines. In some cases, chemical inhibitors of OCT1 were used. In general, we used disopyramide (150 μM). […] In some cases, cimetidine (3 mM) was used as a general OCT inhibitor. Cytotoxicity of some of the leads was determined in colon cancer cell lines. Described below in some detail are the methods for these studies.
(§6) HEK293 cell lines, stably expressing hOCT1, hOCT2 and hOCT3. The following colon cancer cell lines were also used: HCT116, RKO, DLD, HT29 and SW620 purchased from American Type Tissue Culture collection.
as §3

[11] = test system: SW620 colon cancer cell line; assay: Cytotoxicity in colon cancer cell line SW620 with and without cimetidine; type: cell-based
Description: as §5, §6, §3

[12] = test system: RKO colon cancer cell line; assay: Cytotoxicity in colon cancer cell line RKO with and without cimetidine; type: cell-based
Description: as §5, §6, §3

[13] = test system: HCT116 colon cancer cell line; assay: Cytotoxicity in colon cancer cell line HCT116 with and without cimetidine; type: cell-based
Description: as §5, §6, §3

[14] = test system: HT29 colon cancer cell line; assay: Cytotoxicity in colon cancer cell line HT29 with and without cimetidine; type: cell-based
Description: as §5, §6, §3

[15] = test system: HEK293 transfected with human OCT1 (HEK-hOCT1); assay: MTT cytotoxicity assay in HEK293 stably transfected with human OCT1; settings: read-out: IC50 HEK-hOCT1; HEK293 stably transfected with human OCT1; MTT, 7 h exposure then 72 h
Description: as §2, §6, §3, §4

[16] = test system: HEK293 transfected with human OCT2 (HEK-hOCT2); assay: MTT cytotoxicity assay in HEK293 stably transfected with human OCT2; settings: read-out: IC50 HEK-hOCT2; HEK293 stably transfected with human OCT2; MTT, 7 h exposure then 72 h
Description: as §2, §6, §3, §4

[17] = test system: OCT1 (human, expressed in the cells; OCT1-dependent cytotoxicity); assay: in vitro; settings: human
Description: as §2, §6, §3, §4

[18] = test system: OCT2 (human, expressed in the cells; OCT2-dependent cytotoxicity); assay: in vitro; settings: human
Description: as §2, §6, §3, §4

DNA in HEK cells = assay: DNA-binding of the platinum agents in HEK cells; type: cell-based, human; settings: compared to cisplatin
Description: After incubation, genomic DNA was isolated from the cell pellets using Wizard® Genomic DNA Purification Kit (Promega, Madison, Wis.) following the manufacturer's instructions. The genomic DNA was used for determination of platinum (ICP-MS) and DNA content (absorption spectrometry at 260 nm). Platinum-DNA adduct formation was expressed as amount of platinum per amount of DNA.

NET-expressing HEK cells = assay: Uptake of platinum compounds into NET-expressing HEK cells vs empty vector HEK cells; type: cell-based, human
Text: The success of our targeting strategy can be gauged in-vitro also through comparing the uptake of the platinum complex into cells. The actual effects of this increased uptake can in turn be ascertained and quantified through comparison of DNA-binding of the platinum complexes.
Accumulation was normalized to protein content.

neuroblastoma xenografts = assay: Antitumor efficacy against neuroblastoma xenografts in mice; type: in vivo; settings: compared to cisplatin (FIG. 8)
[19] = Toxicity evaluation of treated mice (CBC, kidney and liver function, ototoxicity); settings: mouse, in vivo
Description: An evaluation is being conducted in various body tissues/plasma to determine toxicity.
The SM-73 treated mice group was also evaluated for ototoxicity.

[20] = absence of cimetidine, read-out: IC50
[21] = cimetidine 3 mM, read-out: IC50 (in presence of cimetidine)
[22] = SW620, absence of cimetidine, read-out: IC50
[23] = SW620, cimetidine 3 mM, read-out: IC50 (in presence of cimetidine)
[24] = RK0, absence of cimetidine, read-out: IC50
[25] = RK0, cimetidine 3 mM, read-out: IC50 (in presence of cimetidine)
[26] = HCT116, absence of cimetidine, read-out: IC50
[27] = HCT116, cimetidine 3 mM, read-out: IC50 (in presence of cimetidine)
[28] = HT29, absence of cimetidine, read-out: IC50
[29] = HT29, cimetidine 3 mM, read-out: IC50 (in presence of cimetidine)

N.N.[Cl][Pt][Cl] [Cisplatin]
IC50 [1]: 6.16 µM | IC50 [2]: 2.62 µM | Resistance Factor (HEK-hNET): 1.8 | IC50 [3]: 24.5 µM | IC50 [4]: 12.4 µM | IC50 [5]: 19.9 µM | IC50 [6]: 9.63 µM | IC50 (HEK-hOCT3): 4.84 µM | Initial Rate of reaction with glutathione [7]: 0.1173 Absorption unit/hr | IC50 [8]: 18.6 µM | IC50 [9]: 3.77 µM

O=C1[O][Pt]2([NH][C@@H]3CCCC[C@H]3[NH]2)[O]C1=O [Oxaliplatin, reference compound]
IC50 [10, 20]: 21.5 ± 5.3 µM | IC50 [10, 21]: 151 µM | IC50 [1]: 15.9 µM | IC50 [2]: 1.62 µM | IC50 [11, 22]: 7.16 ± 3.59 µM | IC50 [11, 23]: 40 µM | IC50 [3]: 24.8 µM | IC50 [4]: 29.4 µM | IC50 [5]: 20.4 µM | IC50 [6]: 19.9 µM | IC50 [12, 24]: 2.9 ± 0.77 µM | IC50 [12, 25]: 41.7 µM | IC50 [13, 26]: 6.14 ± 1.8 µM | IC50 [13, 27]: 66.5 µM | IC50 (HEK-hOCT3): 1.32 µM | Initial Rate of reaction with glutathione [7]: 0.0909 Absorption unit/hr | IC50 [14, 28]: 13.2 ± 3.3 µM | IC50 [14, 29]: 61.2 µM | IC50 [8]: 18.8 µM | IC50 [9]: 15.5 µM

[NH2][Pt]([NH2])([Cl])[N]1CCN(c2ccccc2)CC1 [SM71]
IC50 [15]: 0.745 ± 0.003 µM | IC50 [16]: 1.26 ± 0.319 µM

[NH2][Pt]([Cl])([Cl])[N]1CCN(c2ccc(F)cc2)CC1 [SM85]
IC50 at 7 h [17]: 0.071 ± 0.014 µM | IC50 at 7 h [18]: 0.208 ± 0.035 µM | Initial Rate of reaction with glutathione [7]: 0.1037 Absorption unit/hr | DNA-binding (DNA in HEK cells): increased DNA-binding

[NH3+][Pt-2]([Cl])([Cl])[NH+]1CCN(c2ccccc2)CC1 [SM73]
IC50 [10, 20]: 48.9 ± 8.5 µM | IC50 [10, 21]: 195 µM | Resistance Factor ([10]; ratio of IC50 in presence and absence of cimetidine): 3.98 | IC50 [15]: 0.036 ± 0.004 µM | IC50 [1]: 5.24 µM | selectivity for accumulation into NET-expressing HEK cells (NET-expressing HEK cells): 3.25 fold | IC50 [2]: 12.3 ± 0.759 µM | IC50 [11, 22]: 33 ± 5.27 µM | IC50 [11, 23]: 147 µM | Resistance Factor ([11]; SW620, ratio of IC50 in presence and absence of cimetidine): 4.45 | antitumor efficacy against neuroblastoma xenografts (neuroblastoma xenografts): retains the antitumor efficacy of cisplatin to a significant extent | Resistance Factor (HEK-hNET): 5.5 | IC50 [3]: 16.5 µM | IC50 [4]: 9.72 µM | IC50 [5]: 13.1 µM | IC50 [6]: 13.6 µM | IC50 [16]: 0.005 ± 0.001 µM | IC50 [12, 24]: 19.6 ± 1.17 µM | IC50 [12, 25]: 75.8 µM | Resistance Factor ([12]; RK0, ratio of IC50 in presence and absence of cimetidine): 3.87 | IC50 [13, 26]: 18.3 ± 2.28 µM | IC50 [13, 27]: 71.2 µM | Resistance Factor ([13]; HCT116, ratio of IC50 in presence and absence of cimetidine): 3.88 | Initial Rate of reaction with glutathione [7]: 0.1132 Absorption unit/hr | IC50 [14, 28]: 14.5 ± 8.54 µM | IC50 [14, 29]: 109 µM | Resistance Factor ([14]; HT29, ratio of IC50 in presence and absence of cimetidine): >7 | IC50 [8]: 13.8 µM | DNA-binding (DNA in HEK cells): increased DNA-binding | ototoxicity [19]: No ototoxicity was observed | IC50 [9]: 3.58 µM

[NH2][Pt]([NH2])([Cl])[N]1CCN(c2ccccc2)CC1 [SM78]
IC50 at 7 h ([17]; IC50 HEK-hOCT1, HEK293 stably transfected with human OCT1, MTT, 7 h exposure then 72 h): 0.988 ± 0.03 µM | IC50 at 7 h ([18]; IC50 HEK-hOCT2, HEK293 stably transfected with human OCT2, MTT, 7 h exposure then 72 h): 2.35 ± 0.313 µM
